From patent US9850283B2, “Macrocyclic inhibitors of the PD-1/PD-L1 and CD80(B7-1)/PD-L1 protein/protein interactions” (BRISTOL-MYERS SQUIBB COMPANY, priority 2013, dated 2017)
Starred links: 1 amine or outer side, 2 acyl side, 3 side chain; linkers in the order of their positions; H or OH if unused. Positions of bridges follow the written chain, without caps; N, C: chain ends. Non-standard residues stand in square brackets, D forms with d. Residues, ends and D or L forms follow the SMILES beside them. Phe(3,4,5-F3) = N[C@@H](Cc1cc(F)c(F)c(F)c1)C(=O)O; X1 = C[C@@H]1C[C@H](C(=O)[*:2])N([*:1])C1; Phe(4-F) = N[C@@H](Cc1ccc(F)cc1)C(=O)O; d(cisHyp) = O=C(O)[C@H]1C[C@@H](O)CN1; dDopa = N[C@H](Cc1ccc(O)c(O)c1)C(=O)O; NMeF = CN[C@@H](Cc1ccccc1)C(=O)O; dHyp = O=C(O)[C@H]1C[C@H](O)CN1; dNMeE = CN[C@H](CCC(=O)O)C(=O)O; NMeNle = CCCC[C@H](NC)C(=O)O; dPip = O=C(O)[C@H]1CCCCN1; dAze = O=C(O)[C@H]1CCN1; Sar = CNCC(=O)O

Assays:
Human PD-L1/PD-1 = target: T1, Human PD-L1/PD-1 (Homo sapiens, UniProt Q9NZQ7); experiment: HTRF PD-1-Ig/PD-L1-His binding assay (human PD-L1); details: cluster symbol; read-out: HTRF IC50 cluster
T1 construct: made in house; host or cells: HEK293T
T1 sequence (Q9NZQ7 with tags, fused parts or gaps): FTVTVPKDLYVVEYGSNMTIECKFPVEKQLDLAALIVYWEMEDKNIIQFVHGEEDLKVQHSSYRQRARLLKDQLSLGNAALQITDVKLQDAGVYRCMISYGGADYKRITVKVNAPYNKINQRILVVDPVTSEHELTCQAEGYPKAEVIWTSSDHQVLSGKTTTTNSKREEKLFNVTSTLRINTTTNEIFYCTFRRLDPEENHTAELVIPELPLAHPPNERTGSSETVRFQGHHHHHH
Outline: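 The time-resolved fluorescence signal comes from Eu-cryptate anti-Ig (1 nM) and APC anti-His (20 nM) antibodies bound to a PD-1-Ig/PD-L1-His complex. Both partners lack transmembrane regions.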

[1] = target: T2, LK35.2-hPD-L1 cells / PE-labeled PD-1-Ig (Homo sapiens, UniProt Q9NZQ7); experiment: LK35.2-hPD-L1 cell binding high-content screening assay; type: cell-based; details: cell binding assay, cell line not given; cluster symbol; read-out: CBA IC50 cluster
T2 construct: expressed in transfected cells; host or cells: LK35.2 mouse B cell line
T2 sequence (Q9NZQ7 19-290): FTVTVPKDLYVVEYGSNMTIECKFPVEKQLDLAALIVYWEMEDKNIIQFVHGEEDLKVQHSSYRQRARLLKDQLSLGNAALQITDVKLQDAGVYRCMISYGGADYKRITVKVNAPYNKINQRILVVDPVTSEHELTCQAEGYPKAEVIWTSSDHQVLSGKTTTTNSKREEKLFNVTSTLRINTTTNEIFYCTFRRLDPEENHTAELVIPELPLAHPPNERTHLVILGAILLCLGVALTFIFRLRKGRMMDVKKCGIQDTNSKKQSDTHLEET
Outline: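 Readout: high-content imaging of PE-PD-1-Ig bound to LK35.2-hPD-L1 cells. Cells plated overnight (RPMI/10% FCS); compound + 1 nM PE-PD-1-Ig, 1 h, 37 °C; 3× dPBS wash before imaging.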

| IC50 (Human PD-L1/PD-1) [nM] | IC50 [1] [nM] | SMILES |
| --- | --- | --- |
| 0.385 to 6.74 | 0.158 to 4.71 | CCCC[C@H]1C(=O)N(C)CC(=O)N[C@@H](CC(=O)O)C(=O)N[C@@H](C(C)C)C(=O)N(C)[C@@H](Cc2ccccc2)C(=O)N[C@@H](Cc2ccc(O)cc2)C(=O)N2CC[C@@H]2C(=O)N[C@@H](Cc2c[nH]c3ccccc23)C(=O)N[C@@H](Cc2ccc(O)cc2)C(=O)N[C@@H](CC(C)C)C(=O)N[C@H](C(=O)NCC(N)=O)CSCC(=O)N[C@@H](Cc2ccccc2)C(=O)N(C)[C@@H](Cc2ccccc2)C(=O)N1C [Example 3577] ({CH2CO}-F[NMeF][NMeNle][Sar]DV[NMeF]Y[dAze]WYLCG-NH2; thioether N-13) |
| 0.385 to 6.74 | 0.158 to 4.71 | CCCC[C@H]1C(=O)N(C)CC(=O)N[C@@H](CC(=O)O)C(=O)N[C@@H](C(C)C)C(=O)N(C)[C@@H](Cc2ccccc2)C(=O)N[C@@H](Cc2ccc(O)cc2)C(=O)N2C[C@H](C)C[C@@H]2C(=O)N[C@@H](Cc2c[nH]c3ccccc23)C(=O)N[C@@H](Cc2ccc(O)cc2)C(=O)N[C@@H](CC(C)C)C(=O)N[C@H](C(=O)NCC(N)=O)CSCC(=O)N[C@@H](Cc2ccccc2)C(=O)N(C)[C@@H](Cc2ccccc2)C(=O)N1C [Example 3578] ({CH2CO}-F[NMeF][NMeNle][Sar]DV[NMeF]Y[X1]WYLCG-NH2; thioether N-13) |
| 6.76 to 30.3 | 0.158 to 4.71 | CCCC[C@H]1C(=O)N(C)CC(=O)N[C@@H](CC(=O)O)C(=O)N[C@@H](C(C)C)C(=O)N(C)[C@@H](Cc2ccccc2)C(=O)N[C@@H](Cc2ccc(O)cc2)C(=O)N(C)CC(=O)N[C@@H](Cc2c[nH]c3ccccc23)C(=O)N[C@H](Cc2ccc(O)c(O)c2)C(=O)N[C@@H](CC(C)C)C(=O)N[C@H](C(=O)NCC(N)=O)CSCC(=O)N[C@@H](Cc2ccccc2)C(=O)N(C)[C@@H](Cc2ccccc2)C(=O)N1C [Example 3579] ({CH2CO}-F[NMeF][NMeNle][Sar]DV[NMeF]Y[Sar]W[dDopa]LCG-NH2; thioether N-13) |
| 0.385 to 6.74 | 0.158 to 4.71 | CCCC[C@H]1C(=O)N2C[C@H](C)C[C@@H]2C(=O)N[C@@H](CC(=O)O)C(=O)N[C@@H](C(C)C)C(=O)N(C)[C@@H](Cc2ccccc2)C(=O)N[C@@H](Cc2ccc(O)cc2)C(=O)N(C)CC(=O)N[C@@H](Cc2c[nH]c3ccccc23)C(=O)N[C@@H](Cc2ccc(O)cc2)C(=O)N[C@@H](CC(C)C)C(=O)N[C@H](C(=O)NCC(N)=O)CSCC(=O)N[C@@H](Cc2ccccc2)C(=O)N(C)[C@@H](Cc2ccccc2)C(=O)N1C [Example 3580] ({CH2CO}-F[NMeF][NMeNle][X1]DV[NMeF]Y[Sar]WYLCG-NH2; thioether N-13) |
| 6.76 to 30.3 | 4.78 to 72.9 | CCCC[C@H]1C(=O)N2CC[C@@H]2C(=O)N[C@@H](CC(=O)O)C(=O)N[C@@H](C(C)C)C(=O)N(C)[C@@H](Cc2ccccc2)C(=O)N[C@@H](Cc2ccc(O)cc2)C(=O)N(C)CC(=O)N[C@@H](Cc2c[nH]c3ccccc23)C(=O)N[C@@H](Cc2ccc(O)cc2)C(=O)N[C@@H](CC(C)C)C(=O)N[C@H](C(=O)NCC(N)=O)CSCC(=O)N[C@@H](Cc2ccccc2)C(=O)N(C)[C@@H](Cc2ccccc2)C(=O)N1C [Example 3582] ({CH2CO}-F[NMeF][NMeNle][dAze]DV[NMeF]Y[Sar]WYLCG-NH2; thioether N-13) |
| 6.76 to 30.3 | 0.158 to 4.71 | CCCC[C@H]1C(=O)N2C[C@@H](O)C[C@@H]2C(=O)N[C@@H](CC(=O)O)C(=O)N[C@@H](C(C)C)C(=O)N(C)[C@@H](Cc2ccccc2)C(=O)N[C@@H](Cc2ccc(O)cc2)C(=O)N(C)CC(=O)N[C@@H](Cc2c[nH]c3ccccc23)C(=O)N[C@@H](Cc2ccc(O)cc2)C(=O)N[C@@H](CC(C)C)C(=O)N[C@H](C(=O)NCC(N)=O)CSCC(=O)N[C@@H](Cc2ccccc2)C(=O)N(C)[C@@H](Cc2ccccc2)C(=O)N1C [Example 3588] ({CH2CO}-F[NMeF][NMeNle][dHyp]DV[NMeF]Y[Sar]WYLCG-NH2; thioether N-13) |
| 0.385 to 6.74 | 0.158 to 4.71 | CCCC[C@H]1C(=O)N2C[C@H](O)C[C@@H]2C(=O)N[C@@H](CC(N)=O)C(=O)N[C@@H](C(C)C)C(=O)N(C)[C@@H](Cc2ccccc2)C(=O)N[C@@H](Cc2ccc(O)cc2)C(=O)N2CCCC[C@@H]2C(=O)N[C@@H](Cc2c[nH]c3ccccc23)C(=O)N[C@@H](Cc2ccc(O)cc2)C(=O)N[C@@H](CCCCN)C(=O)N[C@H](C(=O)NCC(N)=O)CSCC(=O)N[C@@H](Cc2cc(F)c(F)c(F)c2)C(=O)N(C)[C@@H](Cc2ccccc2)C(=O)N1C [Example 3589] ({CH2CO}-[Phe(3,4,5-F3)][NMeF][NMeNle][d(cisHyp)]NV[NMeF]Y[dPip]WYKCG-NH2; thioether N-13) |
| 0.385 to 6.74 | 0.158 to 4.71 | CCCC[C@H]1C(=O)N2C[C@@H](O)C[C@@H]2C(=O)N[C@@H](CC(N)=O)C(=O)N[C@@H](C(C)C)C(=O)N(C)[C@@H](Cc2ccccc2)C(=O)N[C@@H](Cc2ccc(O)cc2)C(=O)N2CCCC[C@@H]2C(=O)N[C@@H](Cc2c[nH]c3ccccc23)C(=O)N[C@@H](Cc2ccc(O)cc2)C(=O)N[C@@H](CCCCN)C(=O)N[C@H](C(=O)NCC(N)=O)CSCC(=O)N[C@@H](Cc2cc(F)c(F)c(F)c2)C(=O)N(C)[C@@H](Cc2ccccc2)C(=O)N1C [Example 3591] ({CH2CO}-[Phe(3,4,5-F3)][NMeF][NMeNle][dHyp]NV[NMeF]Y[dPip]WYKCG-NH2; thioether N-13) |
| 0.385 to 6.74 | 0.158 to 4.71 | CCCC[C@H]1C(=O)N(C)[C@H](CCC(=O)O)C(=O)N[C@@H](CC(N)=O)C(=O)N[C@@H](C(C)C)C(=O)N(C)[C@@H](Cc2ccccc2)C(=O)N[C@@H](Cc2ccc(O)cc2)C(=O)N2CCCC[C@@H]2C(=O)N[C@@H](Cc2c[nH]c3ccccc23)C(=O)N[C@@H](Cc2ccc(O)cc2)C(=O)N[C@@H](CCCCN)C(=O)N[C@H](C(=O)NCC(N)=O)CSCC(=O)N[C@@H](Cc2ccccc2)C(=O)N(C)[C@@H](Cc2ccccc2)C(=O)N1C [Example 3593] ({CH2CO}-F[NMeF][NMeNle][dNMeE]NV[NMeF]Y[dPip]WYKCG-NH2; thioether N-13) |

The next lines start with the compound.

| SMILES | IC50 (Human PD-L1/PD-1) [nM] | IC50 [1] [nM] |
| --- | --- | --- |
| CCCC[C@H]1C(=O)N(C)CC(=O)N[C@@H](CC(=O)O)C(=O)N[C@@H](C(C)C)C(=O)N[C@@H](Cc2ccc(F)cc2)C(=O)N[C@@H](Cc2ccc(O)cc2)C(=O)N(C)CC(=O)N[C@@H](Cc2c[nH]c3ccccc23)C(=O)N[C@@H](Cc2ccc(O)cc2)C(=O)N[C@@H](CC(C)C)C(=O)N[C@H](C(=O)NCC(N)=O)CSCC(=O)N[C@@H](Cc2ccccc2)C(=O)N(C)[C@@H](Cc2ccccc2)C(=O)N1C [Example 3570] ({CH2CO}-F[NMeF][NMeNle][Sar]DV[Phe(4-F)]Y[Sar]WYLCG-NH2; thioether N-13) | > 30.5 | > 74.3 |
| CCCC[C@H]1C(=O)N(C)CC(=O)N[C@@H](CC(=O)O)C(=O)N[C@@H](C(C)C)C(=O)N(C)[C@@H](Cc2ccccc2)C(=O)N[C@@H](Cc2ccc(O)cc2)C(=O)N2CCCC[C@@H]2C(=O)N[C@@H](Cc2c[nH]c3ccccc23)C(=O)N[C@@H](Cc2ccc(O)cc2)C(=O)N[C@@H](CC(C)C)C(=O)N[C@H](C(=O)NCC(N)=O)CSCC(=O)N[C@@H](Cc2ccccc2)C(=O)N(C)[C@@H](Cc2ccccc2)C(=O)N1C [Example 3572] ({CH2CO}-F[NMeF][NMeNle][Sar]DV[NMeF]Y[dPip]WYLCG-NH2; thioether N-13) | 0.385 to 6.74 | 0.158 to 4.71 |
| CCCC[C@H]1C(=O)N2CCCC[C@@H]2C(=O)N[C@@H](CC(=O)O)C(=O)N[C@@H](C(C)C)C(=O)N(C)[C@@H](Cc2ccccc2)C(=O)N[C@@H](Cc2ccc(O)cc2)C(=O)N(C)CC(=O)N[C@@H](Cc2c[nH]c3ccccc23)C(=O)N[C@@H](Cc2ccc(O)cc2)C(=O)N[C@@H](CC(C)C)C(=O)N[C@H](C(=O)NCC(N)=O)CSCC(=O)N[C@@H](Cc2ccccc2)C(=O)N(C)[C@@H](Cc2ccccc2)C(=O)N1C [Example 3573] ({CH2CO}-F[NMeF][NMeNle][dPip]DV[NMeF]Y[Sar]WYLCG-NH2; thioether N-13) | 6.76 to 30.3 | 4.78 to 72.9 |
| CCCC[C@H]1C(=O)N2CCC[C@@H]2C(=O)N[C@@H](CC(=O)O)C(=O)N[C@@H](C(C)C)C(=O)N(C)[C@@H](Cc2ccccc2)C(=O)N[C@@H](Cc2ccc(O)cc2)C(=O)N2CCC[C@@H]2C(=O)N[C@@H](Cc2c[nH]c3ccccc23)C(=O)N[C@@H](Cc2ccc(O)cc2)C(=O)N[C@@H](CC(C)C)C(=O)N[C@H](C(=O)NCC(N)=O)CSCC(=O)N[C@@H](Cc2ccccc2)C(=O)N(C)[C@@H](Cc2ccccc2)C(=O)N1C [Example 3574] (HELM PEPTIDE1{[O=C(C[*:3])[*:2]].F.[meF].[CCCC[C@@H](C(=O)[*:2])N(C)[*:1]].[dP].D.V.[meF].Y.[dP].W.Y.L.C.G.[am]}$PEPTIDE1,PEPTIDE1,1:R3-14:R3$$$V2.0) | 6.76 to 30.3 | 0.158 to 4.71 |
| CCCC[C@H]1C(=O)N2C[C@H](O)C[C@@H]2C(=O)N[C@@H](CC(=O)O)C(=O)N[C@@H](C(C)C)C(=O)N(C)[C@@H](Cc2ccccc2)C(=O)N[C@@H](Cc2ccc(O)cc2)C(=O)N(C)CC(=O)N[C@@H](Cc2c[nH]c3ccccc23)C(=O)N[C@@H](Cc2ccc(O)cc2)C(=O)N[C@@H](CC(C)C)C(=O)N[C@H](C(=O)NCC(N)=O)CSCC(=O)N[C@@H](Cc2ccccc2)C(=O)N(C)[C@@H](Cc2ccccc2)C(=O)N1C [Example 3575] ({CH2CO}-F[NMeF][NMeNle][d(cisHyp)]DV[NMeF]Y[Sar]WYLCG-NH2; thioether N-13) | 0.385 to 6.74 | 0.158 to 4.71 |
| CCCC[C@H]1C(=O)N(C)CC(=O)N[C@@H](CC(=O)O)C(=O)N[C@@H](C(C)C)C(=O)N(C)[C@@H](Cc2ccccc2)C(=O)N[C@@H](Cc2ccc(O)cc2)C(=O)N2C[C@@H](O)C[C@@H]2C(=O)N[C@@H](Cc2c[nH]c3ccccc23)C(=O)N[C@@H](Cc2ccc(O)cc2)C(=O)N[C@@H](CC(C)C)C(=O)N[C@H](C(=O)NCC(N)=O)CSCC(=O)N[C@@H](Cc2ccccc2)C(=O)N(C)[C@@H](Cc2ccccc2)C(=O)N1C [Example 3576] ({CH2CO}-F[NMeF][NMeNle][Sar]DV[NMeF]Y[dHyp]WYLCG-NH2; thioether N-13) | 6.76 to 30.3 | 4.78 to 72.9 |
